Measurements: the Kinase Knowledgebase extract (Sharma et al. 2016)
pIC50: −log10 of the molar value. “And” between values parts separate entries of the source, which are not always exact repeats. Equal values may be shown once.

Target: ROCK2 (human) (UniProt O75116)
Assay: Inhibition of ROCK2 Kinase Activity

ROCK2 (human), sequence (O75116 whole entry, looked up): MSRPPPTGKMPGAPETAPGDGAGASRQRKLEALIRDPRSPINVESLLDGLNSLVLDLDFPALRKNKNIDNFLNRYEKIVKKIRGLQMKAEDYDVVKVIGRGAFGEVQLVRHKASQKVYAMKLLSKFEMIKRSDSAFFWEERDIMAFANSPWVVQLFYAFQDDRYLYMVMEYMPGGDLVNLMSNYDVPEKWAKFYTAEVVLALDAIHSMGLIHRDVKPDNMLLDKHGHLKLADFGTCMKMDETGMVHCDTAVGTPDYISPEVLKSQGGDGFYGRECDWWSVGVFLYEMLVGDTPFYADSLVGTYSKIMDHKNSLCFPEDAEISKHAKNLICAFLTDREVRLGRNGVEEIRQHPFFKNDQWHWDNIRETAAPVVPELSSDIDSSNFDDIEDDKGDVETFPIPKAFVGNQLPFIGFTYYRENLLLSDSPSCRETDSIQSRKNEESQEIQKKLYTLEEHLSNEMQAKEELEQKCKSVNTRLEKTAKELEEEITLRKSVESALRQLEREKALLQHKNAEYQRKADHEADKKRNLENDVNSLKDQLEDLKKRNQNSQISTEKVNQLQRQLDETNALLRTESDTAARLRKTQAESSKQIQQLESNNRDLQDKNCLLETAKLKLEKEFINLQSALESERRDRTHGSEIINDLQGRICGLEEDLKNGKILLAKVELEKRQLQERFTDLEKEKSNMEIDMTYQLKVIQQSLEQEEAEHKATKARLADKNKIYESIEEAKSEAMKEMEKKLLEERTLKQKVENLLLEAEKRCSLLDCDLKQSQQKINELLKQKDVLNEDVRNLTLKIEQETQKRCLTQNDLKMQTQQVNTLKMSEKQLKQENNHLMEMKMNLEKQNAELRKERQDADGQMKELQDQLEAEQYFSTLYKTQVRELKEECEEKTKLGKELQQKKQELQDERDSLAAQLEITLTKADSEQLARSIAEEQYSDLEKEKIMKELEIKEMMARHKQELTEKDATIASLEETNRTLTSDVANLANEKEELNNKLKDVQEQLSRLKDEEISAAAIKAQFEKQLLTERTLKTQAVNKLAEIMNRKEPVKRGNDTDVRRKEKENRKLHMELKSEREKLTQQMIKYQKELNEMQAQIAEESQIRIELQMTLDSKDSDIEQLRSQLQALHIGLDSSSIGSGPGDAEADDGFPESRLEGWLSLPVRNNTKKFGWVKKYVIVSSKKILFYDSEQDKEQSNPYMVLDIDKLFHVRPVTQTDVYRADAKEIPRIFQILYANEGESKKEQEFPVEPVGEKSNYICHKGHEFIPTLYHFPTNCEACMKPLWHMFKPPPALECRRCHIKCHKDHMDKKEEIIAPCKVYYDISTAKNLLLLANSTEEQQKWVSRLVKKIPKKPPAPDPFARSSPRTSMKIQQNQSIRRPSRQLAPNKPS

pIC50 | Structure (SMILES)
≥ 8.00 | CCCC1(C(N)CC)CCC(Oc2cc3cc[nH]c(=O)c3cc2Cl)CC1 (centres undefined)
≥ 8.00 | CC[C@]1(C(N)C2CC2)CC[C@@H](Oc2cc3cc[nH]c(=O)c3cc2Cl)CC1 (some centres undefined)
6.00 to 7.00 | CCCCNC(CC)[C@]1(CC)CC[C@H](Oc2cc3cc[nH]c(=O)c3cc2Cl)CC1 (some centres undefined)
7.00 to 8.00 | CCCC(N)[C@]1(C(C)C)CC[C@H](Oc2cc3cc[nH]c(=O)c3cc2Cl)CC1 (some centres undefined)
7.00 to 8.00 | CC[C@]1(C(C)N)CC[C@@H](Oc2cc3cc[nH]c(=O)c3cc2F)CC1 (some centres undefined)
6.00 to 7.00 | CCC(NCc1ccccc1)[C@]1(CC)CC[C@H](Oc2cc3cc[nH]c(=O)c3cc2Cl)CC1 (some centres undefined)
≥ 8.00 | CC[C@H](N)[C@]1(C)CC[C@H](Oc2cc3cc[nH]c(=O)c3cc2Cl)CC1
≥ 8.00 | CC(C)CC(N)[C@]1(CC2CC2)CC[C@H](Oc2cc3cc[nH]c(=O)c3cc2Cl)CC1 (some centres undefined)
6.00 to 7.00 | CCC(NCC1CC1)[C@]1(CC)CC[C@H](Oc2cc3cc[nH]c(=O)c3cc2Cl)CC1 (some centres undefined)
≥ 8.00 | CCCC(N)[C@]1(C)CC[C@H](Oc2cc3cc[nH]c(=O)c3cc2Cl)CC1 (some centres undefined)
6.00 to 7.00 and ≥ 8.00 | CCC(N)C1(C(F)(F)F)CCC(Oc2cc3cc[nH]c(=O)c3cc2Cl)CC1 (centres undefined)
6.00 to 7.00 | CC[C@]1(C(C)N)CC[C@@H](Oc2cc3ccncc3cc2Br)CC1 (some centres undefined)
≥ 8.00 | CC(C)C(N)C1(CC2CC2)CCC(Oc2cc3cc[nH]c(=O)c3cc2Cl)CC1 (centres undefined)
7.00 to 8.00 | CCC(N)[C@]1(C2CCCCC2)CC[C@H](Oc2cc3cc[nH]c(=O)c3cc2Cl)CC1 (some centres undefined)
7.00 to 8.00 and ≥ 8.00 | NC(C1CC1)C1(CC2CC2)CCC(Oc2cc3cc[nH]c(=O)c3cc2Cl)CC1 (centres undefined)
≥ 8.00 | CCC(N)[C@]1(C)CC[C@H](Oc2cc3cc[nH]c(=O)c3cc2Cl)CC1 (some centres undefined)
≥ 8.00 | NC(C1CC1)[C@]1(C2CC2)CC[C@H](Oc2cc3cc[nH]c(=O)c3cc2Cl)CC1 (some centres undefined)
≥ 8.00 | CC[C@@H](N)[C@]1(CC)CC[C@H](Oc2cc3cc[nH]c(=O)c3cc2Cl)CC1
6.00 to 7.00 | CC[C@]1(C(C)N)CC[C@@H](Oc2c(F)cc3cnccc3c2C)CC1 (some centres undefined)
6.00 to 7.00 | CCC(N)[C@]1(CC)CC[C@H](Oc2c(C)cc3c(=O)[nH]ccc3c2C)CC1 (some centres undefined)
7.00 to 8.00 | CCC(N)C1(C2CCCC2)CCC(Oc2cc3cc[nH]c(=O)c3cc2Cl)CC1 (centres undefined)
7.00 to 8.00 and 6.00 to 7.00 | CCC(N)C1(C2CCC2)CCC(Oc2cc3cc[nH]c(=O)c3cc2Cl)CC1 (centres undefined)
7.00 to 8.00 | CCC(N)[C@]1(OC)CC[C@H](Oc2cc3cc[nH]c(=O)c3cc2Cl)CC1 (some centres undefined)
6.00 to 7.00 | NC(c1ccccc1)[C@]1(CC2CC2)CC[C@H](Oc2cc3cc[nH]c(=O)c3cc2Cl)CC1 (some centres undefined)
6.00 to 7.00 | CCC(N)[C@]1(CC)CC[C@H](Oc2c(C)cc3cnccc3c2C)CC1 (some centres undefined)
7.00 to 8.00 and ≥ 8.00 | CC(N)C1(CC2CC2)CCC(Oc2cc3cc[nH]c(=O)c3cc2Cl)CC1 (centres undefined)

pIC50 | Structure (SMILES)
≥ 8.00 | CCC(N)[C@]1(C2CCOCC2)CC[C@H](Oc2cc3cc[nH]c(=O)c3cc2Cl)CC1 (some centres undefined)
≥ 8.00 | NC(C1CC1)[C@]1(CC2CCOCC2)CC[C@H](Oc2cc3cc[nH]c(=O)c3cc2Cl)CC1 (some centres undefined)
6.00 to 7.00 | CCC(N)[C@]1(C2CCOCC2)CC[C@@H](Oc2cc3cc[nH]c(=O)c3cc2Cl)CC1 (some centres undefined)
6.00 to 7.00 | CC(C)C1(C(N)c2nccs2)CCC(Oc2cc3cc[nH]c(=O)c3cc2Cl)CC1 (centres undefined)
≥ 8.00 | CCC(N)[C@]1(C2CC2)CC[C@H](Oc2cc3cc[nH]c(=O)c3cc2Cl)CC1 (some centres undefined)
7.00 to 8.00 | C[C@]1(C(N)c2ccccc2)CC[C@@H](Oc2cc3cc[nH]c(=O)c3cc2Cl)CC1 (some centres undefined)
6.00 to 7.00 | CCC(N)[C@]1(CC)CC[C@H](Oc2c(F)cc3cnccc3c2C)CC1 (some centres undefined)
≥ 8.00 and 7.00 to 8.00 | CCCC1(C(N)C2CC2)CCC(Oc2cc3cc[nH]c(=O)c3cc2Cl)CC1 (centres undefined)
7.00 to 8.00 | CCC(N)C1(Cc2ccccc2)CCC(Oc2cc3cc[nH]c(=O)c3cc2Cl)CC1 (centres undefined)
7.00 to 8.00 | CC(C)C1(C(N)c2cncs2)CCC(Oc2cc3cc[nH]c(=O)c3cc2Cl)CC1 (centres undefined)
7.00 to 8.00 | CC(N)[C@]1(C2CC2)CC[C@H](Oc2cc3cc[nH]c(=O)c3cc2Cl)CC1 (some centres undefined)
≥ 8.00 | CCCC[C@]1(C(N)CC)CC[C@@H](Oc2cc3cc[nH]c(=O)c3cc2Cl)CC1 (some centres undefined)
≥ 8.00 | CCOC[C@]1(C(N)CC)CC[C@@H](Oc2cc3cc[nH]c(=O)c3cc2Cl)CC1 (some centres undefined)
7.00 to 8.00 and ≥ 8.00 | CCC1(C(C)N)CCC(Oc2cc3cc[nH]c(=O)c3cc2Cl)CC1 (centres undefined)
6.00 to 7.00 | CCC[C@]1(C(C)N)CC[C@@H](Oc2cc3ccnc(N)c3cc2Cl)CC1 (some centres undefined)
≥ 8.00 | CC[C@@H](N)[C@]1(C)CC[C@H](Oc2cc3cc[nH]c(=O)c3cc2Cl)CC1
6.00 to 7.00 | CC[C@]1(C(C)N)CC[C@@H](Oc2cc3c(Cc4ccccc4)c[nH]c(=O)c3cc2Cl)CC1 (some centres undefined)
6.00 to 7.00 | CCC(N)[C@]1(CC)CC[C@H](Oc2c(F)cc3c(=O)[nH]ccc3c2C)CC1 (some centres undefined)
≥ 8.00 and 7.00 to 8.00 | CCC(N)C1(C(C)C)CCC(Oc2cc3cc[nH]c(=O)c3cc2Cl)CC1 (centres undefined)
≥ 8.00 | CCC(N)[C@]1(C2CCSCC2)CC[C@H](Oc2cc3cc[nH]c(=O)c3cc2Cl)CC1 (some centres undefined)
7.00 to 8.00 | CCC(N)[C@]1(C(C)C)CC[C@H](Oc2cc3c(F)c[nH]c(=O)c3cc2Cl)CC1 (some centres undefined)
7.00 to 8.00 | NC(c1ccccc1)C1(C2CCCC2)CCC(Oc2cc3cc[nH]c(=O)c3cc2Cl)CC1 (centres undefined)
7.00 to 8.00 and 6.00 to 7.00 | CCC(N)C1(COC(C)C)CCC(Oc2cc3cc[nH]c(=O)c3cc2Cl)CC1 (centres undefined)
7.00 to 8.00 | CC(N)C1(C2CCC2)CCC(Oc2cc3cc[nH]c(=O)c3cc2Cl)CC1 (centres undefined)
7.00 to 8.00 | CC[C@H](N)[C@]1(C2CCOCC2)CC[C@H](Oc2cc3cc[nH]c(=O)c3cc2Cl)CC1
7.00 to 8.00 and ≥ 8.00 | CCC(N)C1(CC2CC2)CCC(Oc2cc3cc[nH]c(=O)c3cc2Cl)CC1 (centres undefined)

pIC50 | Structure (SMILES)
7.00 to 8.00 | CCC(N)[C@]1(CC2CCOCC2)CC[C@H](Oc2cc3cc[nH]c(=O)c3cc2Cl)CC1 (some centres undefined)
6.00 to 7.00 | NC(C(F)(F)F)C1(CC2CC2)CCC(Oc2cc3cc[nH]c(=O)c3cc2Cl)CC1 (centres undefined)
≥ 8.00 | NC(C1CC1)[C@]1(CCCC(F)(F)F)CC[C@H](Oc2cc3cc[nH]c(=O)c3cc2Cl)CC1 (some centres undefined)
6.00 to 7.00 | CC(C)C(N)C1(C(C)C)CCC(Oc2cc3cc[nH]c(=O)c3cc2Cl)CC1 (centres undefined)
≥ 8.00 | C[C@]1(C(N)C2CC2)CC[C@@H](Oc2cc3cc[nH]c(=O)c3cc2Cl)CC1 (some centres undefined)
≥ 8.00 | CCC(N)[C@]1(C2CCS(=O)(=O)CC2)CC[C@H](Oc2cc3cc[nH]c(=O)c3cc2Cl)CC1 (some centres undefined)
6.00 to 7.00 | CCC(N)[C@]1(CC)CC[C@H](Oc2cc3cc[nH]c(=O)c3cc2C)CC1 (some centres undefined)
7.00 to 8.00 | CCC(N)[C@]1(OC)CC[C@@H](Oc2cc3cc[nH]c(=O)c3cc2Cl)CC1 (some centres undefined)
≥ 8.00 | CC[C@@H](N)[C@]1(C2CCOCC2)CC[C@H](Oc2cc3cc[nH]c(=O)c3cc2Cl)CC1
7.00 to 8.00 | CCC(N)C1(C)CCC(Oc2cc3cc[nH]c(=O)c3cc2Cl)CC1 (centres undefined)
6.00 to 7.00 | CCC(N)[C@]1(CC)CC[C@H](Oc2cc3ccncc3cc2C)CC1 (some centres undefined)
7.00 to 8.00 and ≥ 8.00 | CCCC(N)C1(CC2CC2)CCC(Oc2cc3cc[nH]c(=O)c3cc2Cl)CC1 (centres undefined)
6.00 to 7.00 | CCCC[C@]1(C(N)CC)CC[C@@H](Oc2cc3c(Cc4ccccc4)c[nH]c(=O)c3cc2Cl)CC1 (some centres undefined)
7.00 to 8.00 | CCC1(C(N)CCOC)CCC(Oc2cc3cc[nH]c(=O)c3cc2Cl)CC1 (centres undefined)
6.00 to 7.00 | CCC(NCC(C)C)[C@]1(CC)CC[C@H](Oc2cc3cc[nH]c(=O)c3cc2Cl)CC1 (some centres undefined)
≥ 8.00 | CCC[C@]1(C(C)N)CC[C@@H](Oc2cc3cc[nH]c(=O)c3cc2Cl)CC1 (some centres undefined)
≥ 8.00 | CC[C@H](N)[C@]1(CC)CC[C@H](Oc2cc3cc[nH]c(=O)c3cc2Cl)CC1
7.00 to 8.00 | CC[C@]1(C(C)N)CC[C@@H](Oc2cc3cc[nH]c(=O)c3cc2C)CC1 (some centres undefined)
6.00 to 7.00 | CC[C@]1(C(C)N)CC[C@@H](Oc2c(F)cc3c(=O)[nH]ccc3c2C)CC1 (some centres undefined)
7.00 to 8.00 and 6.00 to 7.00 | CCC(N)C1(CC(C)C)CCC(Oc2cc3cc[nH]c(=O)c3cc2Cl)CC1 (centres undefined)
6.00 to 7.00 | CC[C@]1(C(C)N)CC[C@@H](Oc2ccc3cnccc3c2Cl)CC1 (some centres undefined)
≥ 8.00 | CCC(N)[C@]1(CCCC(F)(F)F)CC[C@H](Oc2cc3cc[nH]c(=O)c3cc2Cl)CC1 (some centres undefined)
7.00 to 8.00 | CCOC1(C(N)CC)CCC(Oc2cc3cc[nH]c(=O)c3cc2Cl)CC1 (centres undefined)
7.00 to 8.00 | CCC(N)[C@]1(CC)CC[C@H](Oc2cc3cc[nH]c(=O)c3cc2F)CC1 (some centres undefined)
≥ 8.00 | CCC(N)[C@]1(CC)CC[C@H](Oc2cc3cc[nH]c(=O)c3cc2Cl)CC1 (some centres undefined)

Structure (SMILES) | pIC50
CC[C@]1(C(N)CF)CC[C@@H](Oc2cc3cc[nH]c(=O)c3cc2Cl)CC1 (some centres undefined) | ≥ 8.00
CC[C@]1(C(N)CF)CC[C@H](Oc2cc3cc[nH]c(=O)c3cc2Cl)CC1 (some centres undefined) | 7.00 to 8.00
